Common to all, as to test: relative viability (nuclei count vs DMSO), 5 days (fraction); higher = more cells survive
Compound in test [1]: CN(C)C/C=C/C(=O)Nc1cc2c(Nc3ccc(F)c(Cl)c3)ncnc2cc1O[C@H]1CCOC1 [Afatinib] + CC(=O)c1c(C)c2cnc(Nc3ccc(N4CCNCC4)cn3)nc2n(C2CCCC2)c1=O [Palbociclib] (partner 0.5 µM)
In outline: (§1)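 Relative viability divides the nuclei count in treated wells by that in vehicle wells. Lung cancer cell lines were seeded in 1536-well plates, dosed by pin tool the next day, and fixed and stained after 5 days in one step with final 0.05% Triton X-100, 1% formaldehyde and 1 ug/ml Hoechst. Dosing was a single drug or a fixed anchor-drug dose plus five library-drug doses (not always all listed) in √10 steps, and values are medians of duplicate plates imaged at 4×.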

Compound in test [2]: CN(C)C/C=C/C(=O)Nc1cc2c(Nc3ccc(F)c(Cl)c3)ncnc2cc1O[C@H]1CCOC1 [Afatinib] + CC(C)C[C@H](NC(=O)[C@H](Cc1ccccc1)NC(=O)c1cnccn1)B(O)O [Bortezomib] (partner 0.002 µM)
In outline:
as §1

Compound in test [3]: CN(C)C/C=C/C(=O)Nc1cc2c(Nc3ccc(F)c(Cl)c3)ncnc2cc1O[C@H]1CCOC1 [Afatinib] + Cc1nc(Nc2ncc(C(=O)Nc3c(C)cccc3Cl)s2)cc(N2CCN(CCO)CC2)n1 [Dasatinib] (partner 0.075 µM)
In outline: as §1

Compound in test [4]: CN(C)C/C=C/C(=O)Nc1cc2c(Nc3ccc(F)c(Cl)c3)ncnc2cc1O[C@H]1CCOC1 [Afatinib] + Cc1nc(NC(=O)N2CCC[C@H]2C(N)=O)sc1-c1ccnc(C(C)(C)C(F)(F)F)c1 [Alpelisib] (partner 2 µM)
The procedure, abridged: as §1

As to NCI-H2023, the relative viability in test [1] (first compound 0.005 µM) came out at 0.382; in test [1] (first compound 0.01581 µM), 0.333; in test [1] (first compound 0.05 µM), 0.284; in test [1] (first compound 0.1581 µM), 0.265; in test [1] (first compound 0.5 µM), 0.275; in test [2] (first compound 0.005 µM), 0.954. Also, the relative viability is 0.884 in test [2] (first compound 0.01581 µM); 0.984 in test [2] (first compound 0.05 µM); 0.899 in test [2] (first compound 0.1581 µM); 1.14 in test [2] (first compound 0.5 µM); 0.61 in test [3] (first compound 0.005 µM); 0.498 in test [3] (first compound 0.01581 µM). In addition, the relative viability in test [3] (first compound 0.05 µM) was 0.492; in test [3] (first compound 0.1581 µM), 0.445; in test [3] (first compound 0.5 µM), 0.546; in test [4] (first compound 0.005 µM), 0.608; in test [4] (first compound 0.01581 µM) it was 0.544; in test [4] (first compound 0.05 µM), 0.446. In addition, the results for the relative viability in test [4] (first compound 0.1581 µM) and in test [4] (first compound 0.5 µM) were 0.408 and 0.434, respectively.

As to BEN, the relative viability in test [1] (first compound 0.005 µM) is 0.447; in test [1] (first compound 0.01581 µM), 0.565; in test [1] (first compound 0.05 µM) it was 0.535; in test [1] (first compound 0.1581 µM), 0.455; in test [1] (first compound 0.5 µM), 0.484; in test [2] (first compound 0.005 µM), 0.918. The relative viability stood at 0.651 in test [2] (first compound 0.01581 µM); 0.882 in test [2] (first compound 0.05 µM); 0.957 in test [2] (first compound 0.1581 µM); 0.905 in test [2] (first compound 0.5 µM); 0.337 in test [3] (first compound 0.005 µM); 0.283 in test [3] (first compound 0.01581 µM). Besides, the relative viability worked out at 0.323 in test [3] (first compound 0.05 µM); 0.336 in test [3] (first compound 0.1581 µM); 0.313 in test [3] (first compound 0.5 µM); 1.25 in test [4] (first compound 0.005 µM); 1.07 in test [4] (first compound 0.01581 µM); 1.18 in test [4] (first compound 0.05 µM). The figures for the relative viability in test [4] (first compound 0.1581 µM) and in test [4] (first compound 0.5 µM) were 1.06 and 1.1, respectively.

For the cell line COR-L 105, the relative viability in test [1] (first compound 0.005 µM) worked out at 0.398; in test [1] (first compound 0.01581 µM), 0.355; in test [1] (first compound 0.05 µM), 0.3; in test [1] (first compound 0.1581 µM), 0.36; in test [1] (first compound 0.5 µM), 0.352; in test [2] (first compound 0.005 µM) it was 0.3. The relative viability amounted to 0.31 in test [2] (first compound 0.01581 µM); 0.334 in test [2] (first compound 0.05 µM); 0.262 in test [2] (first compound 0.1581 µM); 0.362 in test [2] (first compound 0.5 µM); 0.206 in test [3] (first compound 0.005 µM); 0.119 in test [3] (first compound 0.01581 µM). Also, the relative viability in test [3] (first compound 0.05 µM) came out at 0.142; in test [3] (first compound 0.1581 µM) it was 0.137; in test [3] (first compound 0.5 µM), 0.148; in test [4] (first compound 0.005 µM), 0.934; in test [4] (first compound 0.01581 µM), 0.45; in test [4] (first compound 0.05 µM), 0.353. Besides, the relative viability came out at 0.255 in test [4] (first compound 0.1581 µM) and 0.241 in test [4] (first compound 0.5 µM).

For the cell line ABC-1, the relative viability was found to be 0.559 in test [1] (first compound 0.005 µM); 0.576 in test [1] (first compound 0.05 µM); 0.572 in test [1] (first compound 0.1581 µM); 0.561 in test [1] (first compound 0.5 µM); 0.32 in test [2] (first compound 0.005 µM); 0.342 in test [2] (first compound 0.01581 µM). For the same cell line, the relative viability in test [2] (first compound 0.05 µM) stood at 0.349; in test [2] (first compound 0.1581 µM) it was 0.271; in test [2] (first compound 0.5 µM), 0.304; in test [3] (first compound 0.005 µM), 0.559; in test [3] (first compound 0.01581 µM), 0.58; in test [3] (first compound 0.05 µM) it was 0.621. Moreover, the relative viability came out at 0.472 in test [3] (first compound 0.1581 µM); 0.516 in test [3] (first compound 0.5 µM); 1.26 in test [4] (first compound 0.005 µM); 0.856 in test [4] (first compound 0.01581 µM); 0.947 in test [4] (first compound 0.05 µM); 0.931 in test [4] (first compound 0.1581 µM). Also, the relative viability in test [4] (first compound 0.5 µM) was determined as 0.988.

For the origin of these results see the supplement of paper PMC10307832.
